Patent US12599622B2, “Compounds to modulate intestinal absorption of nutrients” (The Brigham and Women's Hospital, Inc., priority 2013, dated 2026)

Assays:
[1] = dynamic viscosity by rheometer in simulated stomach acid; assay type: physicochemical; conditions: 1% w/v in simulated stomach acid
Experimental: Dynamic viscosity was measured using a 20-mm plate with 200-μm gaps (shear rate: 0.01-100 l/s in log scale, shear rate of 1 l/s was selected to compare viscosity of materials).

Sprague-Dawley (SD) rats = assay: Oral Glucose Tolerance Test (OGTT) after pre-gavage; assay type: in vivo, rat; conditions: 15-hour fasted rats, 500 mg/kg 3 times
Experimental: To evaluate the in vivo effect of ASP-PC on postprandial glucose absorption, Sprague-Dawley (SD) rats were pre-gavaged with the particles and tested using the Oral Glucose Tolerance Test (OGTT) method. […] For shorter fasting time, the rats were fasted for 5 hour (starting time: 7 am the same day of OGTT) and gavaged with saline or ASP-PC (starting time: 12 am the same day, dose: 500 mg/kg rat, 3 times, 1-hour apart for each gavage). Blood was collected from the tail vein to measure blood glucose level using a glucometer (OneTouch UltraSmart, LifeScan Inc., USA). Statistical significance was determined using a paired Student t-test. Results were considered significant when p≤0.05.
ASP-PC particles were gavaged in Sprague-Dawley (SD) rats fasted for 5 hour (FIGS. 11A, 11B, and 11C) or 15 hour (FIGS. 11D, 11E, andllF) (dose: 500 mg/kg rat, 3 times, 1-hour apart for each gavage).

[2] = integrative permeation test: glucose barrier on mucin-coated membrane in Franz cell; conditions: paste in simulated stomach acid pH 1.0 on mucin-coated membrane; normalized to membrane without material (0% blocked)
Experimental: Specifically, a cellulose nitrate membrane (pore size: 0.2 μm, Whatman, Germany) was incubated in a 3% w/v porcine stomach mucin (Sigma-Aldrich, USA) solution in Hank's balanced salt solution (HBSS) and gently shaken for 2 hours at room temperature. The membrane was washed with distilled deionized water (DDW, pH 7) to remove the excess mucin solution. The mucin-coated membranes were used within 1 hour following preparation. To measure the thickness of the mucin layer, the mucin-coated membrane was lyophilized and imaged using scanning electron microscope (SEM) and the thickness of randomly selected positions was examined (average mucin layer thickness: ˜100 μm).
The dry weight was calculated from dry weights of material-attached membranes and mucin-coated membranes. […] The permeation test was performed in triplicate. The glucose concentration was measured using high performance liquid chromatography (HPLC, Agilent, USA) with an analytical C18 column (Zorbax Eclipse XDB-C18, Agilent). The flow rate was 1 ml/minute, the eluent was DDW, and the wavelength of UV detector was 195 nm.
The barrier properties of the resultant particles were measured by adding 0.9 ml of particle dispersion and 0.1 ml of 10× simulated stomach acid.

[3] = aluminum release / aluminum content by ICP-AES; assay type: physicochemical
Experimental: To confirm the pH dependent release of aluminum from sucralfate and ASP, aluminum-release was measured during ASP paste formation. […] The aluminum content in the supernatants was measured using inductively coupled plasma atomic emission spectroscopy (ICP-AES, ULTIMA-2, Horiba).
To measure additional aluminum release from aluminum-pre-released ASP, formed pastes were washed with DDW, and 500 mg was added to 10 ml of simulated stomach acid. The samples were vortexed for 5 minutes and incubated for 2 hours. The aluminum content in the supernatant solutions was measured using ICP-AES.

[4] = mechanical stability of pastes (wet and dry weight over time); assay type: physicochemical
Experimental: To assess mechanical stability and physical properties of ASP, each 500 mg of ASP prepared from HCl solutions (0.1-0.3N) was added to 1 ml of simulated stomach acid (pH 1.0) in 37° C. At time points including 0, 10, 30, 60, 120 and 300 minutes, supernatant was removed to measure the wet weight. The remaining paste was lyophilized to measure the dry weight.

[5] = followed by excretion via feces; cited from earlier work

In the case of “sucrose octasulfate-aluminum complex [sucralfate]”, the viscosity [1] is reported as “very high viscosity”, the “peak glucose values at all other time points versus saline” value (Sprague-Dawley (SD) rats) is reported as “similar” and the “5-minutes glucose level following OGTT” value (Sprague-Dawley (SD) rats; p<0.003 vs saline) is reported as 97.8 ± 7.3 mg/dL. For the same substance, the “blocking of glucose (barrier property to glucose permeation)” value [2] was 62%, the “percentage of total aluminum released” value ([3]; in 0.1N HCl) was ~9.4% and the “percentage of total aluminum released” value ([3]; in 0.3N HCl) was ~44.8%. For the same substance, the “original aluminum content released” value ([3]; reaction with simulated stomach acid (pH 1.0)) was ~9.4%, the “total mass liberated upon exposure to stomach acid” value [4] was ~10% and the “duration in the GI tract” value [5] was 2 to 6 h.
